Data reported in patent publication US20050112260A1, “Monatin tabletop sweetener compositions and methods of making same” (Cargill, Inc., priority 2003, published 2005).
One block for each compound: values may come before it. Residues, ends and D or L forms follow the SMILES beside them.

What was measured:
[1] = Sensory evaluation of table-top sweeteners in coffee and iced tea (panel n=6); type: in vivo; conditions: 200 ml serving
Description: Monatin table-top formulations, including R,R monatin or R,R monatin/erythritol combinations, were assessed relative to other known sweeteners (aspartame and sucralose) in coffee and iced tea. The key sensory parameters assessed included sweetness quality, aftertaste, bitter taste and its aftertaste. Qualitative evaluation has been carried out.
Standard coffee was used in which to evaluate sweetener performance (Table 7).
Sweeteners were added to coffee at the following concentrations: • Aspartame 0.025% (w/v) • Sucralose 0.0082% (w/v) • R,R monatin* 0.0020, 0.0025, 0.0030% (w/v) plus 1 g maltodextrin • R,R monatin/erythritol 0.0020, 0.0025, 0.0030% (w/v) plus 1 g erythritol (ii) Iced Tea
An ice tea formulation was developed to evaluate sweetener performance (Table 8).
Sweeteners were added to tea at the following concentrations:
The evaluation of these coffee and tea drinks was carried out by a small (n=6) panel of experienced sensory evaluators who evaluated the coffee products on one tasting occasion and the tea products on a subsequent occasion.

[2] = Sensory stability of monatin and aspartame at pH 2.5, 3.0, 4.0 at 40° C. (sweetness vs sucrose standards, panel n=8); type: physicochemical; conditions: for Rate constant (k; day^−1) of sweetness loss: pseudo-first order assumed
Description: The sensory stability of monatin solutions prepared at pH 2.5, 3.0 and 4.0 and stored at 40° C. was monitored for 100 days. Loss of sweetness from these solutions was compared with the losses of sweetness from aspartame solutions prepared and stored under identical conditions.
The sensory stability of monatin (8% SEV, ˜55 ppm, synthetic blend containing approximately 96% of the 2R,4R/2S, 4S enantiometric pair and 4% of the 2R,4S/2S,4R enantiometric pair) in phosphate/citrate buffers having a pH of 2.5, 3.0, and 4.0 was examined after storage at 40° C. The stability of monatin was compared to that of aspartame (400 ppm) in the same buffers. Three sucrose reference solutions were prepared in the same phosphate/citrate buffers as the monatin and aspartame solutions. All prepared solutions were stored in the dark.
• pH2.5 Phosphoric acid (75% solution) 0.127% (w/v) • Tri-sodium citrate monohydrate 0.005% (w/v) • pH3.0 Phosphoric acid (75% solution) 0.092% (w/v) • Tri-sodium citrate monohydrate 0.031% (w/v) • pH4.0 Phosphoric acid (75% solution) 0.071% (w/v) • Tri-sodium citrate monohydrate 0.047% (w/v)
The sweetness of each sweetener relative to sucrose was assessed in duplicate by a small panel (n=8) of trained sensory evaluators experienced in the sweetness estimation procedure. All samples (in the same buffers) were served in duplicate at a temperature of 22° C.±1° C. Monatin (test) solutions, coded with 3 digit random number codes were presented individually to panelists, in random order. Sucrose reference standards, ranging from 4.0-10.0% (w/v) sucrose, increasing in steps of 0.5% (w/v) sucrose were also provided. Panelists were asked to estimate sweetness by comparing the sweetness of the test solution to the sucrose standards. This was carried out by taking 3 sips of the test solution, followed by a sip of water, followed by 3 sips of sucrose standard followed by a sip of water, etc. Panelists were encouraged to estimate the sweetness to one decimal place, e.g., 6.8, 8.5. A five minute rest period was imposed between evaluating the test solutions. Panelists were also asked to rinse well and eat a cracker to reduce any potential carry over effects.
If a pseudo-first order breakdown reaction is assumed, a plot of logn percentage retention versus time (logn% RTN v. t) allows estimation of the half-life (t½) and rate constant (k) of sweetness loss under any given set of conditions. In so doing, the kinetics of monatin and aspartame sweetness loss may be summarized as follows in Table 13.

[3] = Sweetness relative to sucrose, panel of trained sensory evaluators, dose response curve; type: in vivo; conditions: slope of dose response curve at 8% sucrose equivalence value (SEV)
Description: One assesses sweetness of a sweetener relative to sucrose by using a panel of trained sensory evaluators experienced in the sweetness estimation procedure. All samples (in same buffers) are served in duplicate at a temperature of 22° C.±1° C. Test solutions, coded with 3 digit random number codes, are presented individually to panelists, in random order. Sucrose reference standards, ranging from 4.0-10.0% (w/v) sucrose, increasing in steps of 0.5% (w/v) sucrose are also provided. Panelists are asked to estimate sweetness by comparing the sweetness of the test solution to the sucrose standards. […] Using information obtained from the panelists, the sweetness intensity or potency is calculated by dividing sucrose equivalent value (SEV) (e.g., % sucrose) by the % monatin at a particular point in a dose response curve.
The S,S stereoisomer of monatin is approximately 50-200 times sweeter than sucrose by weight. […] As discussed above, the sweetness of the monatin is calculated using experienced sensory evaluators in a sweetness comparison procedure, where a test sweetener solution is matched for sweetness intensity against one of a series of reference solutions. […] The intensity sweetness is calculated as the slope in a dose response curve, where the % sucrose is divided by the % monatin. […]

[4] = pH 2.5, 40° C., day 1, aspartame 400 ppm
[5] = pH 2.5, 40° C., day 2, aspartame 400 ppm
[6] = pH 2.5, 40° C., day 3, aspartame 400 ppm
[7] = pH 2.5, 40° C., day 4, aspartame 400 ppm
[8] = pH 2.5, 40° C., day 7, aspartame 400 ppm
[9] = pH 2.5, 40° C., day 8, aspartame 400 ppm
[10] = pH 2.5, 40° C., day 9, aspartame 400 ppm
[11] = pH 2.5, 40° C., day 11, aspartame 400 ppm
[12] = pH 2.5, 40° C., day 50, aspartame 400 ppm
[13] = pH 2.5, 40° C., day 100, aspartame 400 ppm
[14] = pH 3.0, 40° C., day 1, aspartame 400 ppm
[15] = pH 3.0, 40° C., day 2, aspartame 400 ppm
[16] = pH 3.0, 40° C., day 3, aspartame 400 ppm
[17] = pH 3.0, 40° C., day 4, aspartame 400 ppm
[18] = pH 3.0, 40° C., day 7, aspartame 400 ppm
[19] = pH 3.0, 40° C., day 8, aspartame 400 ppm
[20] = pH 3.0, 40° C., day 9, aspartame 400 ppm
[21] = pH 3.0, 40° C., day 11, aspartame 400 ppm
[22] = pH 3.0, 40° C., day 50, aspartame 400 ppm
[23] = pH 3.0, 40° C., day 100, aspartame 400 ppm
[24] = pH 4.0, 40° C., day 3, aspartame 400 ppm
[25] = pH 4.0, 40° C., day 8, aspartame 400 ppm
[26] = pH 4.0, 40° C., day 11, aspartame 400 ppm
[27] = pH 4.0, 40° C., day 17, aspartame 400 ppm
[28] = pH 4.0, 40° C., day 24, aspartame 400 ppm
[29] = pH 4.0, 40° C., day 50, aspartame 400 ppm
[30] = pH 4.0, 40° C., day 100, aspartame 400 ppm

- Retention of Aspartame Sweetness (%) [2, 4]: 94.0%
- Retention of Aspartame Sweetness (%) [2, 5]: 92.6%
- Retention of Aspartame Sweetness (%) [2, 6]: 89.9%
- Retention of Aspartame Sweetness (%) [2, 7]: 85.7%
- Retention of Aspartame Sweetness (%) [2, 8]: 81.9%
- Retention of Aspartame Sweetness (%) [2, 9]: 81.5%
- Retention of Aspartame Sweetness (%) [2, 10]: 81.3%
- Retention of Aspartame Sweetness (%) [2, 11]: 79.8%
- Retention of Aspartame Sweetness (%) [2, 12]: 57.1%
- Retention of Aspartame Sweetness (%) [2, 13]: 10.9%
- Rate constant (k; day^−1) of sweetness loss ([2]; pH 2.5, 40° C.): 0.013 day⁻¹
- Sweetness Retained (%) ([2]; pH 2.5, 100 days storage at 40° C.): 11%
- Retention of Aspartame Sweetness (%) [2, 14]: 96.5%
- Retention of Aspartame Sweetness (%) [2, 15]: 96.1%
- Retention of Aspartame Sweetness (%) [2, 16]: 92.3%
- Retention of Aspartame Sweetness (%) [2, 17]: 89.9%
- Retention of Aspartame Sweetness (%) [2, 18]: 86.3%
- Retention of Aspartame Sweetness (%) [2, 19]: 82.9%
- Retention of Aspartame Sweetness (%) [2, 20]: 83.1%
- Retention of Aspartame Sweetness (%) [2, 21]: 81.5%
- Retention of Aspartame Sweetness (%) [2, 22]: 65.9%
- Retention of Aspartame Sweetness (%) [2, 23]: 30.8%
- Rate constant (k; day^−1) of sweetness loss ([2]; pH 3.0, 40° C.): 0.009 day⁻¹
- Sweetness Retained (%) ([2]; pH 3.0, 100 days storage at 40° C.): 31%
- Retention of Aspartame Sweetness (%) [2, 24]: 95.1%
- Retention of Aspartame Sweetness (%) [2, 25]: 87.8%
- Retention of Aspartame Sweetness (%) [2, 26]: 84.8%
- Retention of Aspartame Sweetness (%) [2, 27]: 81.0%
- Retention of Aspartame Sweetness (%) [2, 28]: 82.4%
- Retention of Aspartame Sweetness (%) [2, 29]: 74.5%
- Retention of Aspartame Sweetness (%) [2, 30]: 57.7%
- Rate constant (k; day^−1) of sweetness loss ([2]; pH 4.0, 40° C.): 0.005 day⁻¹
- Sweetness Retained (%) ([2]; pH 4.0, 100 days storage at 40° C.): 58%
Structure (SMILES): COC(=O)[C@H](Cc1ccccc1)NC(=O)[C@@H](N)CC(=O)O [Aspartame, reference compound] (H-Asp-Phe-OMe)
- Comments (sensory evaluation) ([1]; Coffee, Aspartame 250 ppm): Balanced sweetness profile. Very low level
- SEV Aspartame (% sucrose) ([2]; pH 2.5, 40° C., day 0, aspartame 400 ppm): 7.34 % sucrose
- SEV Aspartame (% sucrose) [2, 4]: 6.90 % sucrose
- SEV Aspartame (% sucrose) [2, 5]: 6.80 % sucrose
- SEV Aspartame (% sucrose) [2, 6]: 6.60 % sucrose
- SEV Aspartame (% sucrose) [2, 7]: 6.29 % sucrose
- SEV Aspartame (% sucrose) [2, 8]: 6.01 % sucrose
- SEV Aspartame (% sucrose) [2, 9]: 5.98 % sucrose
- SEV Aspartame (% sucrose) [2, 10]: 5.97 % sucrose
- SEV Aspartame (% sucrose) [2, 11]: 5.86 % sucrose
- SEV Aspartame (% sucrose) [2, 12]: 4.19 % sucrose
- SEV Aspartame (% sucrose) [2, 13]: 0.80 % sucrose
- SEV Aspartame (% sucrose) ([2]; pH 3.0, 40° C., day 0, aspartame 400 ppm): 7.15 % sucrose
- SEV Aspartame (% sucrose) [2, 14]: 6.90 % sucrose
- SEV Aspartame (% sucrose) [2, 15]: 6.87 % sucrose
- SEV Aspartame (% sucrose) [2, 16]: 6.60 % sucrose
- SEV Aspartame (% sucrose) [2, 17]: 6.43 % sucrose
- SEV Aspartame (% sucrose) [2, 18]: 6.17 % sucrose
- SEV Aspartame (% sucrose) [2, 19]: 5.93 % sucrose
- SEV Aspartame (% sucrose) [2, 20]: 5.94 % sucrose
- SEV Aspartame (% sucrose) [2, 21]: 5.83 % sucrose
- SEV Aspartame (% sucrose) [2, 22]: 4.71 % sucrose
- SEV Aspartame (% sucrose) [2, 23]: 2.20 % sucrose
- SEV Aspartame (% sucrose) ([2]; pH 4.0, 40° C., day 0, aspartame 400 ppm): 7.10 % sucrose
- SEV Aspartame (% sucrose) [2, 24]: 6.75 % sucrose
- SEV Aspartame (% sucrose) [2, 25]: 6.23 % sucrose
- SEV Aspartame (% sucrose) [2, 26]: 6.02 % sucrose
- SEV Aspartame (% sucrose) [2, 27]: 5.75 % sucrose
- SEV Aspartame (% sucrose) [2, 28]: 5.85 % sucrose
- SEV Aspartame (% sucrose) [2, 29]: 5.29 % sucrose
- SEV Aspartame (% sucrose) [2, 30]: 4.10 % sucrose

Structure (SMILES): N[C@H](C[C@](O)(Cc1c[nH]c2ccccc12)C(=O)O)C(=O)O [R,R monatin]
- sweetness compared to sucrose by weight [3]: 2000-2400 times sweeter than sucrose by weight

Structure (SMILES): NC(CC(O)(Cc1c[nH]c2ccccc12)C(=O)O)C(=O)O (centres unmarked) [S,S monatin]
- sweetness compared to sucrose by weight [3]: 50-200 times sweeter than sucrose by weight

Structure (SMILES): OC[C@H]1O[C@H](O[C@]2(CCl)O[C@H](CCl)[C@@H](O)[C@@H]2O)[C@H](O)[C@@H](O)[C@H]1Cl [Sucralose]
- Comments (sensory evaluation) ([1]; Coffee, Sucralose 82 ppm): Slow sweetness onset allows stronger
- Comments (sensory evaluation) ([1]; Iced Tea, Sucralose 170 ppm): Delay in sweetness onset means first
